Activity calls are given as the source filed them.
Assays:
Assay type in all cases: functional, organism-based
[1] = test system: Aspergillus flavus; assay: Antifungal activity against Aspergillus flavus assessed as inhibition of mycelial growth in dextrose sabouraud broth and Czapek agar at 0.1 mg/ml at 28 +/- 1 degC for 72 hr by dilution technique
[2] = test system: Aspergillus flavus; assay: Antifungal activity against Aspergillus flavus assessed as inhibition of mycelial growth in dextrose sabouraud broth and Czapek agar at 0.2 mg/ml at 28 +/- 1 degC for 72 hr by dilution technique
[3] = test system: Aspergillus flavus; assay: Antifungal activity against Aspergillus flavus assessed as inhibition of mycelial growth in dextrose sabouraud broth and Czapek agar at 0.3 mg/ml at 28 +/- 1 degC for 72 hr by dilution technique
[4] = test system: Aspergillus flavus; assay: Antifungal activity against Aspergillus flavus assessed as inhibition of mycelial growth in dextrose sabouraud broth and Czapek agar at 0.5 mg/ml at 28 +/- 1 degC for 72 hr by dilution technique
[5] = test system: Aspergillus flavus; assay: Antifungal activity against Aspergillus flavus assessed as inhibition of mycelial growth in dextrose sabouraud broth and Czapek agar at 0.6 mg/ml at 28 +/- 1 degC for 72 hr by dilution technique
[6] = test system: Aspergillus flavus; assay: Antifungal activity against Aspergillus flavus assessed as inhibition of mycelial growth in dextrose sabouraud broth and Czapek agar at 0.4 mg/ml at 28 +/- 1 degC for 72 hr by dilution technique
[7] = test system: Sclerotinia sclerotiorum; assay: Antifungal activity against Sclerotinia sclerotiorum assessed as inhibition of mycelial growth in dextrose sabouraud broth and Czapek agar at 28 +/- 1 degC for 72 hr by dilution technique

CC1=CC(=O)C(C(C)C)CC1 (centres undefined)
active: Activity [5]
inactive: Activity [1] | Activity [2] | Activity [3] | Activity [4] | Activity [6]

C=CC(C)(CCC=C(C)C)OC(C)=O (centres undefined) [LINALYL ACETATE]
569.62 uL/L: EC50 [7]
inactive: Activity [1] | Activity [2] | Activity [3] | Activity [4] | Activity [5] | Activity [6]

CC12CCC(CC1)C(C)(C)O2
inactive: Activity [1] | Activity [2] | Activity [3] | Activity [4] | Activity [5] | Activity [6]

From ChEMBL document CHEMBL3046863, “Chemical composition and antifungal activity of essential oil of Chrysactinia mexicana gray” (J Agric Food Chem, 2005)
